Data: ChEMBL document CHEMBL1201862, “PubChem BioAssay data set” (2004)
Active and inactive are the calls of the source.

Assays:
[1] = cells
[2] = tested on: INS1; assay: beta cell apoptosis inhibitors, cytokine rescue, dose response, luminescence, retest (AID 449756); format: functional, cell-based; details: Rattus norvegicus;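 also: cell death triggered by IL-1 beta plus TNF-alpha plus IFN-gamma mixture; protective hits raise ATP signal compared with cytokine alone wells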
[3] = Shn3 3'UTR reporter inhibitors, dose response, cell-based, Clone20 osteoblasts, firefly luciferase, cherry-picked (AID 624132); format: functional;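 also: firefly luciferase luminescence from reporter carrying the Shn3 3'UTR in osteoblasts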
[4] = HepG2 cell cytotoxicity, dose response, cytotoxicity control for Shn3 inhibitor project, CellTiter-Glo, cherry-picked (AID 624134); format: functional, cell-based
[5] = control 3'UTR Renilla luciferase suppression, dose response, counter-screen for Shn3 inhibitor project, cell-based, Clone20-Shn3RL, cherry-picked (AID 624133); format: functional
[6] = target: Protein Wnt-3a (Mus musculus, UniProt P27467); assay: Wnt3a-driven reporter signaling inhibition, dose response, selectivity assay for Gli-SUFU antagonist project, Wnt-LIGHT cells, luminescence (AID 651570); format: functional; details: read-out: IC50_Mean;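 also: Wnt-LIGHT reporter cells stimulated with conditioned medium from Wnt3a-producing cells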
Protein Wnt-3a, sequence (P27467 whole entry): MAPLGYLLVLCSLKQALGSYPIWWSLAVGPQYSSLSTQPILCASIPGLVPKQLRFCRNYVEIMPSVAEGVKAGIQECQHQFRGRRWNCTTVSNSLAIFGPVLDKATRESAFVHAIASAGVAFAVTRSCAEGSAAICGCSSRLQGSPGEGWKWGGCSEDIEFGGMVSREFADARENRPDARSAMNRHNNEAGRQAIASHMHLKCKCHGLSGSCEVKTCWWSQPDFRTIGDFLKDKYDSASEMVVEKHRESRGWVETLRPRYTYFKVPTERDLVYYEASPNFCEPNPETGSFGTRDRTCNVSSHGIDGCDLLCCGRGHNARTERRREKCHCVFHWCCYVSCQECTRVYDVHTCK

[7] = target: COUP transcription factor 2 (Homo sapiens, UniProt P24468); assay: Luminescence-based cell-based high throughput dose response assay to identify inhibitors of COUP-TFII (NR2F2).; format: functional;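 also: HEK293 cells transiently cotransfected with COUP-TFII expression vector and reporter; luciferase reporter luminescence driven by COUP-TFII from the pX2-168 reporter plasmid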
COUP transcription factor 2, sequence (P24468 whole entry): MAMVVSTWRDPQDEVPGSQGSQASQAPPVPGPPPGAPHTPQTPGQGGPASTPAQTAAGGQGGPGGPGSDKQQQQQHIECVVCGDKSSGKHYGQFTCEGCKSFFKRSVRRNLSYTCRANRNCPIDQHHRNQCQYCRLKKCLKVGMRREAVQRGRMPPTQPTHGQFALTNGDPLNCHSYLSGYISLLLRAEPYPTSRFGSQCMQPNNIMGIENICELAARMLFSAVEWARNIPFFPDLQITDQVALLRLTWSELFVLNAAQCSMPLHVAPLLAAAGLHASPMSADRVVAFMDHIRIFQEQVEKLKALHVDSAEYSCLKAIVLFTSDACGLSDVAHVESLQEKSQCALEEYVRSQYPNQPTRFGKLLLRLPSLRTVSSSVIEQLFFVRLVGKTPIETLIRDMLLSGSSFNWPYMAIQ

[8] = NIH-3T3 fibroblast cytotoxicity, dose response, cytotoxicity control, cell-based, fluorescence, Alamar Blue, secondary assay (AID 2327); format: functional;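 also: NIH-3T3 mouse fibroblasts cultured with fluconazole at 8 µg/mL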
[9] = tested on: Streptococcus sp. 'group A'; assay: growth inhibition of control SK(-) GAS strain, dose response, counter-screen for streptokinase expression inhibitor project, luminescence, kanamycin, BacTiterGlo, confirmation (AID 1900); format: functional, organism-based
[10] = target: Luciferin 4-monooxygenase (Photinus pyralis, UniProt P08659); assay: Counter Screen for Luciferase-based Assay Positives. [Related pubchem assays: 620, 618, 411 ]
Luciferin 4-monooxygenase, sequence (P08659 whole entry): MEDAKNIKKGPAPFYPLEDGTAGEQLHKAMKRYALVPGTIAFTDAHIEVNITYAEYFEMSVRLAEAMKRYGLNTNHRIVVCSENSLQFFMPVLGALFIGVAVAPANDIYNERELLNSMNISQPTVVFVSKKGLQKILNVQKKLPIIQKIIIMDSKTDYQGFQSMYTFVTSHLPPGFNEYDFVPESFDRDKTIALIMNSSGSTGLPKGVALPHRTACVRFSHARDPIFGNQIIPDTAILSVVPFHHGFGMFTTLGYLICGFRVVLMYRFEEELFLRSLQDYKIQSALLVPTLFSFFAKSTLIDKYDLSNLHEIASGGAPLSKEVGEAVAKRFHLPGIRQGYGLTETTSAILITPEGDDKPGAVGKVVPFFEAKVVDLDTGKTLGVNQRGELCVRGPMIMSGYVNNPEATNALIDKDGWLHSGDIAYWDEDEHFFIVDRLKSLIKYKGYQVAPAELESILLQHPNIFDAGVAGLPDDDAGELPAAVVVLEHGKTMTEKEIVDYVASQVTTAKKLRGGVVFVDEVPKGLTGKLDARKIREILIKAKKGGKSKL

[11] = cells; format: functional, cell-based
[12] = C. albicans growth with fluconazole, confirmation, fluorescence, retest (AID 2467); format: functional, cell-based
[13] = cells; format: functional, cell-based; remark: listed apart in the source
[14] = tested on: HT-1080; assay: cytotoxicity in HT1080 fibrosarcoma cells, cell-based, fluorescence readout (AID 620); format: functional; details: Homo sapiens
[15] = tested on: Streptococcus; assay: Group A Streptococcus viability loss, dose response, counter-screen for streptokinase expression inhibitor project, luminescence, BacTiterGlo (AID 1915); format: functional, organism-based;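 also: potency for reduction of bacterial viability or growth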
[16] = target: T1, Coagulation factor XII (Homo sapiens, UniProt P00748); assay: FXIIa inhibitor potency, concentration-response, biochemical (AID 716); format: functional
T1 sequence (P00748 whole entry): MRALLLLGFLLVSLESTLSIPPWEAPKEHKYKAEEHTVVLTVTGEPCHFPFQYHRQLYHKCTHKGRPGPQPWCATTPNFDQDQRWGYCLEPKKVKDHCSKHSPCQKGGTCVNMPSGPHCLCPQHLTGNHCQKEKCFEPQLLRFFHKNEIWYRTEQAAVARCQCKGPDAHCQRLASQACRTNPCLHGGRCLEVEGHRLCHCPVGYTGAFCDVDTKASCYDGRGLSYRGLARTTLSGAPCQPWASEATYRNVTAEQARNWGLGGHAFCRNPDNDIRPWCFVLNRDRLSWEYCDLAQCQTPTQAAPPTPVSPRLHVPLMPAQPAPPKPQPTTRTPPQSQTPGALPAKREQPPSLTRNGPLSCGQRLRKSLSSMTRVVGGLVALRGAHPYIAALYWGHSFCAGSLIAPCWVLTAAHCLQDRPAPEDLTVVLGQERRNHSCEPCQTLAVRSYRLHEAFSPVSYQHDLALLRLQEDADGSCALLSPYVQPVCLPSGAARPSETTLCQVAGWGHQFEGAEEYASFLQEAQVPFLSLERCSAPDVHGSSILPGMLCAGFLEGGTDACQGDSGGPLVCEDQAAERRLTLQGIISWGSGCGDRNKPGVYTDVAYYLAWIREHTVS

[17] = target: T2, Microphthalmia-associated transcription factor (Homo sapiens, UniProt O75030); assay: TRPM1 promoter luciferase signal decrease, dose response, MITF inhibitor project, cell-based, SK-MEL-5, cherry-picked, set 3 (AID 493073); format: functional
T2 sequence (O75030 whole entry): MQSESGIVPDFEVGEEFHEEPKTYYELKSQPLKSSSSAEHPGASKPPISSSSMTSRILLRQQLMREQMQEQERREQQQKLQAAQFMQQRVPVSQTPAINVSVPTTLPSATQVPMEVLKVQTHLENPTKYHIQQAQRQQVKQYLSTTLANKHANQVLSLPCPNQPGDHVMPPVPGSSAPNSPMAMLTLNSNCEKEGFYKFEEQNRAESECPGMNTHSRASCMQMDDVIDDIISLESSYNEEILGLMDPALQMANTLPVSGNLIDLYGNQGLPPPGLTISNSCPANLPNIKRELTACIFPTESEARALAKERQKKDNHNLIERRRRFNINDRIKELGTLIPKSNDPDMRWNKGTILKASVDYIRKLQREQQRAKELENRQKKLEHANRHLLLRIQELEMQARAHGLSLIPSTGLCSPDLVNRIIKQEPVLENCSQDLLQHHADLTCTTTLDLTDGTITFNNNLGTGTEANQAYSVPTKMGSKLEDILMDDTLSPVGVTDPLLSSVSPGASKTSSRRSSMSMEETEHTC

[18] = HepG2 hepatoma cell cytotoxicity, dose response, cytotoxicity control, CellTiter-Glo luminescence, dry powder, set 3 (AID 720594); format: functional, cell-based
[19] = HEK293T cell cytotoxicity, dose response, cytotoxicity control, CellTiter-Glo luminescence, dry powder, set 2 (AID 720595); format: functional, cell-based; details: HEK293
[20] = HeLa cell cytotoxicity, dose response, cytotoxicity control, CellTiter-Glo luminescence, dry powder, set 2 (AID 720593); format: functional, cell-based
[21] = HEK293T cytotoxicity, dose response, cytotoxicity control for miR-122 modulator project, cell-based, inhibitor set, cherry-pick, set 2 (AID 720697); format: functional
[22] = HEK293T cytotoxicity, dose response, cytotoxicity control for miR-122 modulator project, cell-based, activator set, cherry-pick (AID 720690); format: functional;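 also: HEK293T human cells scored for general mammalian cytotoxicity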
[23] = target: NAD-dependent protein deacylase sirtuin-5, mitochondrial (Homo sapiens, UniProt Q9NXA8); assay: SIRT5 desuccinylase inhibitors, dose response, biochemical, fluorescence imaging, cherry-pick, set 5 (AID 720591);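 also: desuccinylation of succinyl peptide AMC substrate read as fluorescence after trypsin release; potency of inhibitors that lower fluorescence and may act on trypsin instead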
NAD-dependent protein deacylase sirtuin-5, mitochondrial, sequence (Q9NXA8 whole entry): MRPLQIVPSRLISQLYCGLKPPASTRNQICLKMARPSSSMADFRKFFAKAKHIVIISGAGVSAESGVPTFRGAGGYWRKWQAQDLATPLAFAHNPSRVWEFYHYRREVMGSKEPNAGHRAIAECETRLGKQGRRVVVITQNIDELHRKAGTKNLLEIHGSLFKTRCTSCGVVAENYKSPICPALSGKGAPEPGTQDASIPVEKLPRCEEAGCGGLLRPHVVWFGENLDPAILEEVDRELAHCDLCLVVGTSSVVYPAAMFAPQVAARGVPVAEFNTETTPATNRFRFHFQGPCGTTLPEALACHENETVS

[24] = target: Paired box protein Pax-8 (Homo sapiens, UniProt Q06710); assay: inhibitors of PAX8-driven TPO luciferase reporter, dose response, RMG-I cells, cherry-pick (AID 687027); format: functional, cell-based;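 also: luciferase reporter driven by Pax8 target thyroperoxidase promoter measured by SteadyGlo luminescence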
Paired box protein Pax-8, sequence (Q06710 whole entry): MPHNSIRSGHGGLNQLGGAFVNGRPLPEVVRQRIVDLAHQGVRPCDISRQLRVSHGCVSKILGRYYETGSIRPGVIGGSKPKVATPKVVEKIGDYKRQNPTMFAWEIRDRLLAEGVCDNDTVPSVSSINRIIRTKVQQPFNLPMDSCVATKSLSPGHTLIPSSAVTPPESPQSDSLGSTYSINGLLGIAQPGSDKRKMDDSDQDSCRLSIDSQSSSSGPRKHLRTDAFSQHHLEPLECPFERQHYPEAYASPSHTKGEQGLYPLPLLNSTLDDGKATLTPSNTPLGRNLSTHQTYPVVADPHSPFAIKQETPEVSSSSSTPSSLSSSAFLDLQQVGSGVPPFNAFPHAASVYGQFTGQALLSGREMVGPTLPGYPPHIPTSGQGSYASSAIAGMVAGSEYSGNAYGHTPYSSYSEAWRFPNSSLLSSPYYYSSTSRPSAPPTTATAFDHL

[25] = inhibitors of PGC1a acetylation in cells, dose response, cell-based, cherry-picked samples (AID 720514); format: functional;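 also: potency may reflect raised or lowered acetylation signal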
[26] = NIH:OVCAR-3 ovarian cancer cell cytotoxicity, dose response, PAX8 inhibitor project, plate reader, dry powder samples (AID 743044); format: functional, cell-based
[27] = IGROV1 ovarian cancer cell cytotoxicity, dose response, PAX8 inhibitor project, plate reader, dry powder samples (AID 743043); format: functional, cell-based; details: IGROV-1
[28] = non-specific cell cytotoxicity, dose response, cytotoxicity control for PAX8 inhibitor project, plate reader, dry powder samples (AID 743021); format: functional, cell-based
[29] = cytotoxicity in OVCAR8 ovarian cancer cells, dose response, PAX8 project, cell-based, plate reader, dry powder samples (AID 743197); format: functional; details: OVCAR-8
[30] = P. falciparum Dd2 growth inhibitors, dose response, SYBR Green, cherry-picked samples (AID 1159567); format: functional, cell-based
[31] = HepG2 cell cytotoxicity, dose response, cytotoxicity control, cherry-picked samples (AID 1159577); format: functional, cell-based
[32] = tested on: HeLa; assay: HeLa cell cytotoxicity, dose response, cytotoxicity control, ATP luminescence, cherry-pick samples (AID 687004); format: functional, cell-based; details: Homo sapiens
[33] = tested on: HEK293; assay: HEK293T cell cytotoxicity, dose response, cytotoxicity control, ATP luminescence, cherry-pick samples (AID 687005); format: functional, cell-based; details: Homo sapiens;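 also: cells exposed to compound for 48 hours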
[34] = HEK293 Cytotoxicity Assay Measured in Cell-Based System Using Plate Reader - 7071-01_Inhibitor_Dose_CherryPick_Activity_Set2.; format: functional
[35] = inhibitors of fibronectin matrix deposition, dose response, AH1F cells, Alexa488-FN fluorescence, cherry-picks (AID 1035475); format: functional, cell-based
[36] = target: Potassium channel subfamily K member 9 (Homo sapiens, UniProt Q9NPC2); assay: TASK3 (KCNK9) channel inhibitors, thallium flux, SAR follow-up, selectivity assay for TASK1 inhibitor project, cell-based, FluxOR thallium flux, concentration-response (AID 652211); format: functional;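 also: potency is for inhibitors of the channel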
Potassium channel subfamily K member 9, sequence (Q9NPC2 whole entry): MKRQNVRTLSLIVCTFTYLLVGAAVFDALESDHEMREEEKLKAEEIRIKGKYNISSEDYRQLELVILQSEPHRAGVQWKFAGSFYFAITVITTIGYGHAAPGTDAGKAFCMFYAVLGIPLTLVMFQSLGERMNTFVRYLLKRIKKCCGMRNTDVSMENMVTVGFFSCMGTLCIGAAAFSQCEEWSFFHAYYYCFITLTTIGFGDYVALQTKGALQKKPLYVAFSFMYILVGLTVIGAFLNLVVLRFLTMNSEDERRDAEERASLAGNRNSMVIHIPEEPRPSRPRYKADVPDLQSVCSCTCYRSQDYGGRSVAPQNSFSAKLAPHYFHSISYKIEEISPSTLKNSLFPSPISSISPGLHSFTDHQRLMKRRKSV

[37] = target: Potassium channel subfamily K member 3 (Homo sapiens, UniProt O14649); assay: TASK1 (KCNK3) potassium channel inhibitors, SAR follow-up, CHO cells, FluxOR thallium flux (AID 652212); format: functional
Potassium channel subfamily K member 3, sequence (O14649 whole entry): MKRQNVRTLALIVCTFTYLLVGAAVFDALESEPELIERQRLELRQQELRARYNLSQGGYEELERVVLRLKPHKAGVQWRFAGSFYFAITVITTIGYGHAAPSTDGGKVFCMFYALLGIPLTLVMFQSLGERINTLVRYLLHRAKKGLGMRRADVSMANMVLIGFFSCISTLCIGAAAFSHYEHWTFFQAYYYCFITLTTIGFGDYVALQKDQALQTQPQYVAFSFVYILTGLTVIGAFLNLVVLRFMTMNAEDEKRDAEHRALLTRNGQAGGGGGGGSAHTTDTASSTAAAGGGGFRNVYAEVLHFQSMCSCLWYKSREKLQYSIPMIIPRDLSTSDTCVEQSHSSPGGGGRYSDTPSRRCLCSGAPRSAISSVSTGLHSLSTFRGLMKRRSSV

[38] = A549 cell cytotoxicity, dose response, cytotoxicity control, 24 h, CellTiter-Glo luminescence, cherry-picks (AID 1053115); format: functional, cell-based; details: A549, 24 h
[39] = target: Kappa-type opioid receptor (Homo sapiens, UniProt P41145); assay: Late-stage fluorescence-based cell-based dose response assay for antagonists of kappa opioid receptor 1 (OPRK1).; format: functional
Kappa-type opioid receptor, sequence (P41145 whole entry): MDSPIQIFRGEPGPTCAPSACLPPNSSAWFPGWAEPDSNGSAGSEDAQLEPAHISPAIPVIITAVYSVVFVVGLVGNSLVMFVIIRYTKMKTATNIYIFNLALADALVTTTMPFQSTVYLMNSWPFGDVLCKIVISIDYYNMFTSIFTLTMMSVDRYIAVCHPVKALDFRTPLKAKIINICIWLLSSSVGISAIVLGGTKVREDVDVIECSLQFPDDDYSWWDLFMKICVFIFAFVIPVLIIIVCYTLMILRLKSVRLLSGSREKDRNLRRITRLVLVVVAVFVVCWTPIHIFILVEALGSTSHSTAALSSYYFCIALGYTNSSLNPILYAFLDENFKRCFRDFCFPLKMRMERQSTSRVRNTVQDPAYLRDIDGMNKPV

[40] = target: Mu-type opioid receptor (Homo sapiens, UniProt P35372); assay: Late-stage results from the probe development effort to identify antagonists of OPRK1: luminescence-based cell-based dose response OPRM1 counterscreen, Set 2.; format: functional
Mu-type opioid receptor, sequence (P35372 whole entry): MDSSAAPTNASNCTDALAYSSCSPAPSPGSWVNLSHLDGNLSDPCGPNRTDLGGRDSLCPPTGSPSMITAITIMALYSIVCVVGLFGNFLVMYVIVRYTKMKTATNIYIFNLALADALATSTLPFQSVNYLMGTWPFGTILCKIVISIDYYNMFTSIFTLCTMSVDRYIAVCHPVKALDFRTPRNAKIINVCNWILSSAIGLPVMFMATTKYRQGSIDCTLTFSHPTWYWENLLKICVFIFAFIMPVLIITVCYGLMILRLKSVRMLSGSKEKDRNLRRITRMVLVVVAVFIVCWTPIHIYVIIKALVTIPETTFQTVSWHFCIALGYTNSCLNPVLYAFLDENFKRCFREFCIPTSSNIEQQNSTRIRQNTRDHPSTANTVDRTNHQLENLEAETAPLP

[41] = target: Delta-type opioid receptor (Homo sapiens, UniProt P41143); assay: Late-stage results from the probe development effort to identify antagonists of OPRK1: fluorescence-based cell-based dose response OPRD1 counterscreen, Set 2.; format: functional
Delta-type opioid receptor, sequence (P41143 whole entry): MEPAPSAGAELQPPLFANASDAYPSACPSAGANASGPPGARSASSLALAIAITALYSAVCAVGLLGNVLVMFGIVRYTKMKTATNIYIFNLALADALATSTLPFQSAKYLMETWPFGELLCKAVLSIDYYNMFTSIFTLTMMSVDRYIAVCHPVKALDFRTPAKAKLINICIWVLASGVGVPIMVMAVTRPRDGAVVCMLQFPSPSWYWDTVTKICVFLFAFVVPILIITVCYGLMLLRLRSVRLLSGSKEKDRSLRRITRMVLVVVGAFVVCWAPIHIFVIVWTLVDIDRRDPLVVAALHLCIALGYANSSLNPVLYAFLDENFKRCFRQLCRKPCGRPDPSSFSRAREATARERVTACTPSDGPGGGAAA

[42] = target: Sphingosine 1-phosphate receptor 1 (Homo sapiens, UniProt P21453); assay: Late-stage counterscreen for antagonists of kappa opioid receptor 1 (OPRK1): fluorescence-based cell-based dose response assay to identify antagonists of Sphingosine 1-Phosphate Receptor 1 (S1P1).; format: functional
Sphingosine 1-phosphate receptor 1, sequence (P21453 whole entry): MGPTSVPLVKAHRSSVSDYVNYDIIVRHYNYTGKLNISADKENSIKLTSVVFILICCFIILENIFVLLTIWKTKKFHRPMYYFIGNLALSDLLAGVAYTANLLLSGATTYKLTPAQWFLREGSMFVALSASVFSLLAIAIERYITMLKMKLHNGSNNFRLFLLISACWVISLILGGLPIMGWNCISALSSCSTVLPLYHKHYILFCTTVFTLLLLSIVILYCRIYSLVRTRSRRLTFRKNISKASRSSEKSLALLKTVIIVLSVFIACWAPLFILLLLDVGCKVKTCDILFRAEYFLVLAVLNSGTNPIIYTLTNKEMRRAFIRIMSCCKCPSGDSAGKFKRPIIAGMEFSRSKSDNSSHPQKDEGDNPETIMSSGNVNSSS

[43] = Late stage assay provider results from the probe development effort to identify inhibitors of the Plasmodium falciparum M18 Aspartyl Aminopeptidase (M18AAP): radiolabel-based cell-based dose response assay to identify compounds that inhibit P. falciparum growth in RBCs, Set 2..; format: functional
[44] = inhibitors of non-replicating M. tuberculosis, dose response, luciferase, dry powder (AID 651619); format: functional; details: Mycobacterium tuberculosis
[45] = inhibitors of non-replicating M. tuberculosis, dose response, luciferase, dry powder (AID 651620); format: functional; details: Mycobacterium tuberculosis
[46] = growth inhibition of replicating M. tuberculosis, dose response, counter-screen, dry powder, IC90 (AID 651617); format: functional; details: Mycobacterium tuberculosis

Cc1cccn2c(=O)c3cc(C(N)=S)c(=N)n(CCCOC(C)C)c3nc12
AC50 [1]: 0.626 µM (active)

O=C(c1cc(COc2cccc3cnccc23)on1)N1CCCC(CCCO)C1 (centres undefined)
AC50 [2]: 1.41 µM (active) | AC50 [3]: 0.519 µM (active) | AC50 [4]: 1.98 µM (active) | AC50 [5]: 1.14 µM (active) | IC50 [6]: 0.338 µM (active) | IC50 [7]: 2.58 µM (active)

CC(C)C(=O)NC(c1ccco1)c1ccc2cccnc2c1O (centres undefined)
EC50 [8]: 4.72 µM (inconclusive) | EC50 [9]: 3.15 µM (active) | EC50 [10]: 38.8 µM (active) | EC50 [11]: 16.5 µM (active) | EC50 [12]: 1.6 µM (active) | EC50 [13]: > 350 µM (not active) | EC50 [14]: > 50 µM (not active) | EC50 [15]: 3.87 µM (active) | IC50 [16]: > 50 µM (inactive) | AC50 [17]: 8.18 µM (active) | AC50 [3]: 2.05 µM (active) | AC50 [4]: 3.1 µM (active) | AC50 [5]: 4.36 µM (active) | AC50 [18]: > 52 µM (inactive) | AC50 [19]: 6.24 µM (active) | AC50 [20]: > 52 µM (inactive) | AC50 [21]: 3.72 µM (active) | AC50 [22]: 5 µM (active)

O=C(NC(c1ccc(Cl)cc1)c1cnccn1)C1CCN(Cc2ccc(Cl)cc2)CC1 (centres undefined)
AC50 [23]: > 30 µM (inactive)

COc1ccccc1-c1ccc([C@@H]2[C@@H]3CN(S(=O)(=O)c4ccc(-c5ccccc5)cc4)C[C@H]2N3)cc1
AC50 [24]: 23.3 µM (active) | AC50 [25]: 9.34 µM (active) | AC50 [26]: 33.6 µM (active) | AC50 [27]: 49.5 µM (active) | AC50 [28]: 0.302 µM (active) | AC50 [29]: 56 µM (active) | AC50 [30]: 2.6 µM (active) | AC50 [31]: 10.6 µM (active)

COCCNC(=O)C[C@H]1C=C[C@@H](NS(=O)(=O)c2ccc(C)cc2)[C@H](CO)O1
AC50 [32]: 19.9 µM (active) | AC50 [33]: 23.9 µM (active) | AC50 [34]: 23.9 µM (active)

N#Cc1ccc(-c2ccc3c(c2)[C@@H]2[C@@H](CCN2S(=O)(=O)c2ccccc2F)[C@H](CO)N3)cc1
AC50 [35]: 24.5 µM (active)

CCOc1ccccc1NC(=O)c1cccc(NC(=O)C2CCCCC2)c1
IC50 [36]: 1.3 µM (active) | IC50 [37]: 0.067 µM (active)

O=C(Nc1ccc2c(c1)[C@@H]1C[C@@H](CC(=O)N3CCc4ccccc4C3)O[C@@H](CO)[C@@H]1O2)Nc1ccccc1F
AC50 [38]: > 60 µM (inactive)

COC(=O)c1cc(-c2ccc(OC)cc2)c(-c2ccc(OC)cc2)s1
IC50 [39]: 1.58 µM (active) | IC50 [40]: > 50 µM (inactive) | IC50 [41]: 19.8 µM (inactive) | IC50 [42]: > 50 µM (inactive)

COc1cc(Br)c(CCNc2ccnc3ccccc23)cc1OC
IC50 [43]: 0.45 µM (active)

Fc1ccc(-c2nnc(SCc3ccccn3)o2)cc1
IC90 [44]: 4 µM (active) | IC90 [45]: 4 µM (active) | IC90 [46]: 62 µM (active)
